Data on one compound can be found in article PMC8280112, “Substrate reduction therapy for Krabbe disease and metachromatic leukodystrophy using a novel ceramide galactosyltransferase inhibitor” (Scientific Reports, 2021).

For one series, the target named is T1, Human CGT (Homo sapiens, UniProt Q16880).
T1 construct: made in house; host or cells: CHO cells expressing UGT8; crude M-PER lysate
T1 sequence (Q16880 21-541): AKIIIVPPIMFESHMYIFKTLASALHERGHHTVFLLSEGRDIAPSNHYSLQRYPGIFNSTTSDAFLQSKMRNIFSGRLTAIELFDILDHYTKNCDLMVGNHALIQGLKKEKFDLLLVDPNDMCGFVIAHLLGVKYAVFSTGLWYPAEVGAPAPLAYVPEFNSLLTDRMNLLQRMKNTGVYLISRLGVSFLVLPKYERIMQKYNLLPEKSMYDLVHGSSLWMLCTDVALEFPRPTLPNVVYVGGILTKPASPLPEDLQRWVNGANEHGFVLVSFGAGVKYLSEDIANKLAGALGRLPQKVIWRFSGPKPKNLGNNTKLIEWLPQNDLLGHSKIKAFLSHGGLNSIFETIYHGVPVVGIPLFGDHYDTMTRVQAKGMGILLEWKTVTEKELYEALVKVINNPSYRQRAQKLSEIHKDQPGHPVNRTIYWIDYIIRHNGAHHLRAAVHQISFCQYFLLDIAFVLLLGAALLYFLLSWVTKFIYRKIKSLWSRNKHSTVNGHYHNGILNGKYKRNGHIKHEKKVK
In words: CGT enzyme assay (cell-lysate assay). The note with it: lysate of CHO cells expressing human UGT8. The format is biochemical. How it is done:
Human CGT was obtained from a cell lysate from CHO cells expressing UGT8 (made by BioMarin) prepared in M-PER with proteinase inhibitors (Sigma). Compounds, serially diluted in DMSO and Tween 80, were added to 4 µg/well of CHO/CGT cell lysate to make 20 µL final reaction volume containing 0.5% DMSO and 0.01% Tween 80 in the reaction buffer consisting of 10 µM NDB-(2R-OH)-C6 ceramide (made by BioMarin), 17.5 µM UDP-Galactose (Sigma), 35 µM of dioleoylphosphatidylcholine (DOPC), 5 mM MgCl2, 5 mM MnCl2, 1% BSA, 15 mM KCl, 1 mM EGTA, 8 mM CHAPS, 10 mM HEPES–NaOH pH 7.2. The reaction was incubated at 37 °C for 1 h and stopped by adding 80 µL of methanol:acetonitrile (1:3) with 5 µM N-dodecanoyl-NBD-galactosylceramide (Matreya) internal standard (IS) for 30 min. 200 µL H2O:ACN (1:1) was added for 5 min and then centrifuged at 4000 rpm for 38 min at RT before quantifying NDB-(2R-OH)-C6-galactosylceramide (BioMarin) by LC–MS on a Rapid Fire 360 mass spectrometer (Agilent) coupled with a API4000 + MS in electrospray ionization (ESI) negative mode (Applied Biosystems). These assay conditions were used to screen the Bio-active lipid library (Cayman Cat# 10506).

In the next series the target is T2, rhARSA (Homo sapiens, UniProt P15289).
T2 construct: purchased R&D systems
T2 sequence (P15289 19-507): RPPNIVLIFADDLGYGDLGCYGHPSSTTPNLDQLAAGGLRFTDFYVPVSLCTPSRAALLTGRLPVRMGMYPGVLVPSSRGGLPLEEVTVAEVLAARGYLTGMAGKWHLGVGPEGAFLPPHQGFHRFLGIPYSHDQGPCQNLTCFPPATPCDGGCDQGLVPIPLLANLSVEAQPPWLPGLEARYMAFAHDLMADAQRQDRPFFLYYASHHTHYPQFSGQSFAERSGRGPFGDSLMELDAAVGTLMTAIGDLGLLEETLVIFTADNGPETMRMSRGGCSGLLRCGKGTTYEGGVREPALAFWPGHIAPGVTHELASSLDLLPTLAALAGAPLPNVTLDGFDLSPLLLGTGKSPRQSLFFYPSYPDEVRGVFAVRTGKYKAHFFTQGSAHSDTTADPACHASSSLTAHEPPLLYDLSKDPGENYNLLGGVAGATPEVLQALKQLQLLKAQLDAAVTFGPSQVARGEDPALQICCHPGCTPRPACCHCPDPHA
The series can be described thus: Arylsulfatase A assay. The note with it: read-out: ARSA IC50. The format is biochemical. The procedure:
The ARSA assay was modified from a previously reported method. The reaction mixture contained 40 ng of rhARSA (R&D systems), various concentrations of inhibitor, and 6.2 µM N-octadecanoyl-d3-sulfatide substrate in reaction buffer (0.08 M sodium acetate at pH 4.5, 2.08 g/L sodium taurodeoxycholate, 33 mM MnCl2, 0.4% DMSO) and was incubated for 16 h at 37 °C. The reaction was terminated with equal volume MeOH:ethyl acetate (EA). N-octadecanoyl-d35-psychosine (Matreya) was added as the IS, together with 400 µL EA and 200 µL H2O. After centrifugation, 200 µL of the EA layer was dried under a stream of N2 and resuspended in 100 µL MeOH before quantifying the N-octadecanoyl-d3-galactosylceramide product using a reported UPLC–MS/MS method.

For series [1], the system named is GalCer and psychosine levels. The series can be described thus: Twitcher mouse brain psychosine and galactosylceramide analysis. It counts as in vivo. The following applies: Twitcher mice treated PND3-PND28. How it is done: Mice heterozygous for the Twitcher mutation on the congenic C57BL/6 background were originally purchased from The Jackson Laboratories (stock #000845). Homozygous GALC −/− animals were generated from heterozygous mating. Genotypes were determined on PND1 by PCR as previously described[43],[44]. Animals that died prior to weaning on PND28 were excluded from the study unless otherwise noted. Animals were euthanized when they became moribund as defined by any of the following: losing 25% of their maximal body weight, ataxia severe enough to impair ability to eat or drink, or lack of response to tactile stimulus. Animals used for tissue collection were euthanized by anesthetic overdose and perfused transcardially with PBS for three min. Animals for lifespan analysis were euthanized using CO2 compressed gas delivered at 10–30% chamber volume displacement per min. […] Tissues were harvested and flash frozen in liquid nitrogen.
Galactosylsphingosine (psychosine), and galactosylceramide were measured by tandem mass spectrometry as previously described. Briefly, tissue samples were homogenized in 0.04 M citric acid. Internal controls in 200 µL methanol were added to 50 µL of each sample. […] Galactosylsphingosine and galactosylceramide were detected using MRM on an AB SCIEX 4000QTRAP tandem mass spectrometer using ESI in the positive ion mode. […]

The next series concerns wild-type C57BL/6 mice. The series can be described thus: PND3 wild-type mouse repeat dose study: tolerability. The format is in vivo.

Molecules are shown by their SMILES.

Consider `C[C@H]1N(c2ccc(Br)cc2)C(=O)N(c2ccc(Br)cc2)C1(O)c1cccc(OC(F)(F)F)c1` (stereo partly drawn) [S202], for which the IC50 against Human CGT stood at 15 nM. The IC50 at rhARSA is above 50000 nM. In series [1], the “non-hydroxy-GalCer in the brain” value was “dose-dependent reduction” and the “psychosine levels in the brain” value is given as “reduced to the same extent as the non-hydroxy-GalCer”. For the same compound, the phenotypes entry in the series on wild-type C57BL/6 mice (daily IP PND3 to PND40, above 0.5 mg/kg) was “reduced weight gain, mild hind limb gait abnormalities, and some animal deaths”. In addition, the tolerability result in the series on wild-type C57BL/6 mice (daily IP PND3 to PND40, lower doses) was “well tolerated at lower doses”.
